Data on one compound can be found in US20250368629A1, “FLAVONOID COMPOUNDS AND METHODS AND MATERIALS FOR USING FLAVONOID COMPOUNDS TO TREAT FIBROTIC CONDITIONS” (Mayo Foundation for Medical Education and Research, priority 2022, published 2025).

Data set [1] concerns mouse model of NASH. Briefly: Mouse model of NASH (CD-HFD). The data set is classed as in vivo. The note with it: 10 mg/kg daily i.p. for 2 weeks. As for the experimental part:
FIGS. 20A-20D show the efficacy of F-4N in a mouse model of NASH. FIG. 20A) Study design and weight changes of mice treated with 10 mg/kg F-4N daily i.p. for 2 weeks. FIG. 20B). Representative H&E and Sirius Red liver histology. FIG. 20C) Objective automated quantification of Sirius Red staining. FIG. 20D) Liver weight and colon weight changes. N=5 chow diet, N=10 holine deficient-high fat diet (CD-HFD) vehicle, N=10 CD-HFD+F-4N.
Mice in a mouse model of NASH were treated with 10 mg/kg F-4N daily i.p. for 2 weeks (FIG. 20A). Livers from treated mice were analyzed by H&E and Sirius Red staining (FIG. 20B). Sirius Red staining was quantified (FIG. 20C). Liver weight and colon weight changes were also assessed (FIG. 20D).

Data set [2] has as its system Mdr2-/- mice. Put plainly: Mdr2-/- mouse model of PSC with established liver fibrosis, oral treatment. Type of data set: in vivo. The note with it: 4 weeks. The source says:
20 Mdr2^−/− mice (10 males, 10 females) approximately 7 months old with established liver fibrosis were assigned to receive either F-4N or vehicle ([…]) for 4 weeks. At the end of treatment, mice were sacrificed, and livers were collected to assess liver inflammation and fibrosis.

In data set [3] the target is T1, STK17A (Homo sapiens, UniProt Q9UEE5).
T1 construct: purchased Reaction Biology
T1 sequence (Q9UEE5 1-414): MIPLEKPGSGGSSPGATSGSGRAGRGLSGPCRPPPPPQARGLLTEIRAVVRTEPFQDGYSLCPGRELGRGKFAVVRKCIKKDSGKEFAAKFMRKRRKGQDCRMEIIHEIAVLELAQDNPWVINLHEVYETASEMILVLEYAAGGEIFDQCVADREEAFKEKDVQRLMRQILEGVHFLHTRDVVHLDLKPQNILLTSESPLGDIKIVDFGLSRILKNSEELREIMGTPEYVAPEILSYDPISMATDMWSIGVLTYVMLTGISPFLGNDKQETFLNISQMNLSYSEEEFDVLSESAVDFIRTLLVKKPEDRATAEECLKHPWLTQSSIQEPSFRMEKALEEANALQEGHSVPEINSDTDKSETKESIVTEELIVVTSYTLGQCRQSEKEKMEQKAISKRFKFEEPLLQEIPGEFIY
Briefly: Kinase dose response curve on STK17A. Type of data set: biochemical. The note with it: FIG. 4A, read-out: half maximal inhibitory concentration (IC50) on STK17A. On the procedure: FIGS. 4A-4B show mechanism of action of F-4N. […] Dose response curves on STK17A and STK17B show half maximal inhibitory concentration (IC50) values of ˜200 nM. […] FIG. 4A. F-4N was sent to Reaction Biology to be tested against their entire wild-type kinase panel. 1 μM F-4N was tested in an ATP competition assay against 420+ kinases. Z-scores were calculated to identify true hits over noise.

For data set [4], the system named is 10-18-month-old C57/B6 mice. Put plainly: Non-resolving model of lung fibrosis (bleomycin, aged mice). The data set is classed as in vivo, mouse. On the procedure:
FIG. 3. Lung fibrosis was induced in 10-18-month-old C57/B6 mice (average ˜15-months) using intratracheal bleomycin (1.1 units/kg) on day 0 of the study. On day 14 one group was administered F-4N (10 mg/kg daily i.p.) for 14 days prior to harvesting the lung for outcomes and senescence clearance and fibrosis. Lung architecture and fibrosis were observed by trichome histological staining and hydroxyproline content. Hydroxyproline content was measured using a hydroxyproline assay kit (Biovision) according to the manufacturer's instructions with slight modification. The lung tissues were weighed, homogenized in sterile water (10 mg of tissue per 100 μL H2O) and hydrolyzed in 12 M HCl in a pressure-tight, Teflon capped vial at 120° C. for 3 hours followed by filtration through a 45 μm Spin-X Centrifuge Tube filter (Corning). Ten μL of the hydrolyzed samples was dried in a Speed-Vac for 2 hours, followed by incubation with 100 μL of Chloramine T reagent for 5 minutes at room temperature and 100 μL of 4-(Dimethylamino)benzaldehyde (DMAB) for 90 minutes at 60° C. The absorbance of oxidized hydroxyproline was determined at 560 nm. Hydroxyproline concentrations were calculated from a standard curve generated using known concentrations of trans-4-hydroxyl-L-proline. The total amount of protein isolated from the weighed tissues was determined by using a protein assay kit (Bio-Rad, absorbance at 595 nm). The amount of collagen was expressed in μg/mg total protein. qPCR: RNA isolation using RNeasy Plus Mini Kit (Qiagen) according to the manufacturer's instructions. Isolated RNA (250 ng) was then used to synthesize cDNA using SuperScript VILO (Invitrogen). Quantitative PCR was performed using FastStart Essential DNA Green Master (Roche) and analyzed using a LightCycler 96 (Roche). Data are expressed as a fold change by ΔΔCt relative to glyceraldehyde-3-phosphate dehydrogenase (GAPDH).

Data set [5] deals with sections of lung tissue from IPF patient transplant lungs. Briefly: IPF patient-derived organotypic ex vivo culture. Type of data set: cell-based, human. The note with it: 3 μM, 4 days ex vivo, N=3 patient samples. As for the experimental part: An IPF patient-derived organotypic ex vivo culture was used to determine efficacy of F-4N. Sections of lung tissue (about […]) were cut from IPF patient transplant lungs and cultured for 4 days ex vivo with DMSO (0.1%) or F-4N (3 μM). Lung tissue slices were collected, RNA was isolated, and qPCR analysis was performed (FIG. 31). Media was also collected for ELISA analysis for IL-6 (FIG. 31B). N=3 patient samples.

The nature of data set [6]: Stability in mouse plasma. The data set is classed as in vitro ADME. As for the experimental part: The stability of F-4N in plasma was assessed (FIG. 27). Compounds were incubated with human or mouse plasma. The percent of F-4N recovered was analyzed by LC-MS. Warfarin was used as a control for stable compound, and propantheline was used as a control for an unstable compound. Analysis was performed by Cyprotex (Framingham, MA).

Data set [7] concerns ~400 kinases. Put plainly: Kinome screen (Reaction Biology wild-type kinase panel, ATP competition assay). The data set is classed as biochemical. To be noted: 1 μM, Z-scores. On the procedure:
FIG. 4A. F-4N was sent to Reaction Biology to be tested against their entire wild-type kinase panel. 1 μM F-4N was tested in an ATP competition assay against 420+ kinases. Z-scores were calculated to identify true hits over noise.
Kinome screening was used to test F-4N (1 μM) against ˜400 kinases.

Setting [8] is: 10 mg/kg daily i.p. for 14 days.
Where [9] appears, read: 10 mg/kg daily i.p. for 14 days, qPCR.

Turning to `O=c1c(O)c(-c2ccc(OCc3ccncc3)cc2)oc2ccccc12` [F—4N], in data set [1], the “efficacy in NASH model (histology, Sirius Red, liver weight, liver function, triglyceride, hydroxyproline)” value is “effective to treat NASH”; the “liver expression of profibrotic genes, inflammatory genes, and Stk17b (qPCR)” value was “effectively reduced expression”. For the same compound, in data set [2] (oral delivery), the “expression of fibrogenic genes in the liver” value was “reduced expression”; the “liver fibrosis, especially parenchymal (bridging) fibrosis” value is on record as “Improvement of liver fibrosis”; the “tissue markers of liver inflammation and senescence” value is “Significant reduction”. Further, the liver mass entry in data set [2] (oral treatment) is “reduced”. Besides, the IC50 in data set [3] is around 200 nM. In data set [4] (setting [8]), the “fibrosis and lung architecture by trichrome histological staining” value was “less fibrosis and improved lung architecture”; the lung hydroxyproline content entry is “reduced”. In data set [4] (setting [9]), the “whole lung expression of Collagen I” value is “reduced expression” and the “whole lung expression of senescence markers (Cdkn2a, Cdkn1a, Ccl2)” value is reported as “reduced expression”. Moreover, the “survival following bleomycin-induced fibrosis” value in data set [4] (10 mg/kg daily i.p. from day 14) was “improved survival”. Moreover, in data set [5], the “expression of fibrotic markers (qPCR)” value is listed as “reduced expression” and the “expression of mature alveolar epithelial cell markers (qPCR)” value is reported as “enhanced expression”. In data set [6], the “stability in plasma (percent recovered, LC-MS)” value is “stable”. Besides, the “Putative targets identified by kinome screening” value in data set [7] was “STK17A (also known as DRAK1), STK17B (also known as DRAK2), and MYLK4, AURKB, FLT3, and KIT”.
